Test results as given in patent US12448369B2 (Edgewise Therapeutics, Inc., priority 2023, dated 2025).
Where two headings read alike, the source gives them in different places.

What was measured:
[1] = molecular target: T1, Porcine ventricle myofibrils (ventricular myosin ATPase) (Sus scrofa, UniProt P79293); test: Myofibril ATPase assay, porcine ventricle myofibrils; format: biochemical, porcine (Yucatan minipigs); settings: porcine ventricle myofibrils
T1 construct: Myofibrils from porcine cardiac muscle was isolated from the left ventricle of Yucatan minipigs; tissue Exemplar Genetics; host or cells: left ventricle of Yucatan minipigs, myofibrils prepared in house
T1 sequence (P79293 whole entry): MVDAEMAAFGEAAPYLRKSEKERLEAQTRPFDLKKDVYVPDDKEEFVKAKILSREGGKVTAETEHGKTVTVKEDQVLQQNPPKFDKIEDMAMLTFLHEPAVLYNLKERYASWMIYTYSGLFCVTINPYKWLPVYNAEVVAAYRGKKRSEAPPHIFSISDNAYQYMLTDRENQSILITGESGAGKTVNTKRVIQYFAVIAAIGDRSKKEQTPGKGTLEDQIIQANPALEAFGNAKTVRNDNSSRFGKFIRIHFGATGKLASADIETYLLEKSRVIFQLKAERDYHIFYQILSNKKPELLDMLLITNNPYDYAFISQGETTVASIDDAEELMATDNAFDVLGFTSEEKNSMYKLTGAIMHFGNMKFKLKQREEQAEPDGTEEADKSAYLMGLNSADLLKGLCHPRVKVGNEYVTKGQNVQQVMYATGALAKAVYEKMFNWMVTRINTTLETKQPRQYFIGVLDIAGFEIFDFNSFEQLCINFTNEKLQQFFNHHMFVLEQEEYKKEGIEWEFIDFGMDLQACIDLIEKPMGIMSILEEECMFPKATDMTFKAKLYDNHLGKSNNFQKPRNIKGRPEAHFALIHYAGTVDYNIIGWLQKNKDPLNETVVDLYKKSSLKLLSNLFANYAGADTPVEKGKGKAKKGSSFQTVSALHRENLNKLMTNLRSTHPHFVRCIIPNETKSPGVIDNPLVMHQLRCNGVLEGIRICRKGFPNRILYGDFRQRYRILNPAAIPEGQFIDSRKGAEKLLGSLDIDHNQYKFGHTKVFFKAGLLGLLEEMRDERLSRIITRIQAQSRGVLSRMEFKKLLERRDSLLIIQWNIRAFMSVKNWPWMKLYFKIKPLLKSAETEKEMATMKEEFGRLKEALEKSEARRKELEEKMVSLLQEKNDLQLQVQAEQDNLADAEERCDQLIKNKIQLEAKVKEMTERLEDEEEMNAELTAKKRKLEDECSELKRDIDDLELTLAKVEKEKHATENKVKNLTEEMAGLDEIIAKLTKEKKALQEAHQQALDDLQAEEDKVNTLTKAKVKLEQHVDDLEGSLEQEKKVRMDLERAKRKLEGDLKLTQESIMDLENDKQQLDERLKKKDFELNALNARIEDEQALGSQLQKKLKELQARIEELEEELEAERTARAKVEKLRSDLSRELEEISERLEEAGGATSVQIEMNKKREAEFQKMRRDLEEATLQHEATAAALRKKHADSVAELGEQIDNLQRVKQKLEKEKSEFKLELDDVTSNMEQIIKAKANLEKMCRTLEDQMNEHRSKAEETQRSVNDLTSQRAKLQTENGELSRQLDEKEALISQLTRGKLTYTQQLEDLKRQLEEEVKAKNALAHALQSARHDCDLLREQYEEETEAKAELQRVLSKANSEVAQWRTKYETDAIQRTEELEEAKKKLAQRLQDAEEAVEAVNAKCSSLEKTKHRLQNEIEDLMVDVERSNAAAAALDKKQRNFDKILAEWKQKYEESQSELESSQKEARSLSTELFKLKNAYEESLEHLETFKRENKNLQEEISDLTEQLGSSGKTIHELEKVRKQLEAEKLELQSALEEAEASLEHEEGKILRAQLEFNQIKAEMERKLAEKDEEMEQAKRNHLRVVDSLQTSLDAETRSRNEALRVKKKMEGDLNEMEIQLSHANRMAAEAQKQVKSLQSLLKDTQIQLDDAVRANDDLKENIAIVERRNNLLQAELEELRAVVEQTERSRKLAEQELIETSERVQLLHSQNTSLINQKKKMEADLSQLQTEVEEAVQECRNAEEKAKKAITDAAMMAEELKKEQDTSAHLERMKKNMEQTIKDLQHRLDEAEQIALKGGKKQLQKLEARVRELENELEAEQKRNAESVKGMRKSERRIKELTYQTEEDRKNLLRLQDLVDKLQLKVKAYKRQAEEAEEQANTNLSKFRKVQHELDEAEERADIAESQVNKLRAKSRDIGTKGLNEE
Method in brief: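 ATPase activity of porcine left-ventricle myofibrils (Yucatan minipig) was followed through PK-LDH coupling as NADH loss at 340 nm, read every 1.5-2 min for 75 min. Slopes were normalised to vehicle wells and fitted to a 4-parameter logistic model. Values are Y75, the concentration giving a 25% drop in activity, or Y125 for activators.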

[2] = system: Porcine atria myofibrils (atrial myosin ATPase); test: Myofibril ATPase assay, porcine atria myofibrils; format: biochemical; settings: porcine atria myofibrils
Method in brief: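 Atrial myofibril ATPase measured by NADH-coupled absorbance at 340 nm; vehicle-normalized slopes fitted to give Y75 or Y125 values.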

[3] = system: Rabbit Psoas myofibrils (skeletal myosin ATPase); test: Myofibril ATPase assay, rabbit psoas (skeletal) myofibrils; format: biochemical; settings: rabbit psoas myofibrils
Method in brief: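 Values derive from concentration–response fits of NADH consumption rates at 340 nm, normalized to vehicle-only wells, as Y75 or Y125. Myofibril ATP turnover was linked to NADH via PK/LDH in Ca/EGTA-buffered PIPES, pH 7.0, and read over 75 min.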

[4] = system: SD rats; test: Echocardiography of systolic cardiac performance (HR, FS, LV volumes, SWT) after a single oral dose; format: in vivo; settings: Rattus norvegicus, single dose 10 mg/kg PO, ~2 hrs post-dosing, isoflurane-anesthetized
Experimental: Example 2. Echocardiogram Data
Experiments were performed to evaluate the in vivo ability of the compounds of the disclosure to modulate systolic cardiac performance. Non-invasively echocardiography was used to assess cardiac indicators in isoflurane-anesthetized SD rats. A set of conscious rats were treated with either vehicle control (0 mg/kg PO; n=78) or a single dose of a test compound (10 mg/kg PO, n=2 to 6/compound) via oral gavage. Cardiac function/geometry were recorded at two separate time-points/days: once prior to dosing (e.g., at baseline, day −2) and at ˜2 hrs post-dosing (day 0). In these experiments, heart rate (HR), echocardiography-derived indices of left-ventricular systolic performance, as well as dimensions/volumes were measured using a high-frequency transducer and parasternal long-axis transthoracic views (Vevo3100, VisualSonic). LV fractional shortening (FS), an index of systolic function, was defined as the end-diastole normalized change in internal dimensions divided by the difference in diameter (LVid) of the left ventricle between end-systole (LVids) and end-diastole (LVidd) (e.g., FS=100·[LVidd−LVids]/LVidd). LV volumes were derived using the Teichholz formula (LVV=[7·LVid^3]/[2.4+LVid]). In addition, a systolic wall-thickening index (SWT) was also evaluated. SWT is defined as the relative ratio (end-diastole normalized) of left-ventricular (anterior and posterior) wall-thickness change during systole; e.g., SWT={[(anterior LV wall thickness in systole−anterior LV wall thickness in diastole)]+[(posterior LV wall thickness in systole−posterior LV wall thickness in diastole)]}/{2*diastolic thickness}. In all cases, blood samples were taken (via either tail-vein micro-sampling or cardiac-puncture) at the time of each echocardiographic examination in order to establish pharmacokinetic (PK)/pharmacodynamics (PD) relationships.

[5] = EDV change vs vehicle, read-out: EDV % vs. VEH
[6] = LV fractional shortening change vs vehicle, read-out: FS % vs. VEH
[7] = SWT change vs vehicle, read-out: SWT % vs. VEH
[8] = heart rate change vs vehicle, read-out: HR % vs. VEH
[9] = Y75 value (75% activity relative to no compound)
[10] = ‡ Y125 value, not a Y75 value (125% activity relative to no compound)

| SMILES | Ventricular EC25 ([1]; Y75 value (no ‡ mark)) | Atrial EC25 ([2]; Y75 value (no ‡ mark)) | Skeletal EC25 ([3]; Y75 value (no ‡ mark)) | Ventricular EC25 ([1]; Y75 value) | Atrial EC25 [2, 9] | Skeletal EC25 ([3]; Y75 value) | other results |
| --- | --- | --- | --- | --- | --- | --- | --- |
| Cc1c(CC(=O)N[C@@H](C)c2ncc(C#N)cn2)c(=O)[nH]c2ccc(F)c(F)c12 [compound 1124, (S)—N-(1-(5-cyanopyrimidin-2-yl)ethyl)-2-(5,6-difluoro-4-methyl-2-oxo-1,2-dihydroquinolin-3-yl)acetamide] | 340 nM | 0.07 µM | 0.14 µM | – | – | – | change in vivo at 10 mg/kg [4, 5]: 1 to 10%; change in vivo at 10 mg/kg [4, 6]: 21 to 40%; change in vivo at 10 mg/kg [4, 7]: 1 to 20%; change in vivo at 10 mg/kg [4, 8]: 1 to 10% |
| Cc1c(CC(=O)N[C@H](C)c2ncc(C#N)cc2F)c(=O)[nH]c2ccc(F)c(C3CC3)c12 [compound 27] | 240 nM | 0.23 µM | 0.14 µM | – | – | – | change in vivo at 10 mg/kg [4, 5]: 11 to 20%; change in vivo at 10 mg/kg [4, 6]: 11 to 20%; change in vivo at 10 mg/kg [4, 7]: ≥ 21%; change in vivo at 10 mg/kg [4, 8]: 1 to 20% |
| C[C@H](NC(=O)Cc1cc2c(F)c(F)ccc2[nH]c1=O)c1ncc(C#N)cc1F [compound 36] | 50 nM | 0.02 µM | 0.01 µM | – | – | – | change in vivo at 10 mg/kg [4, 5]: 1 to 10%; change in vivo at 10 mg/kg [4, 6]: 41 to 60%; change in vivo at 10 mg/kg [4, 7]: 21 to 40%; change in vivo at 10 mg/kg [4, 8]: 11 to 20% |
| C[C@@H](NC(=O)Cc1cc2c(F)c(F)ccc2[nH]c1=O)c1ncc(C#N)cc1F [compound 35] | 150 nM | 0.08 µM | 0.09 µM | – | – | – | change in vivo at 10 mg/kg [4, 5]: 11 to 20%; change in vivo at 10 mg/kg [4, 6]: 1 to 20%; change in vivo at 10 mg/kg [4, 7]: 0%; change in vivo at 10 mg/kg [4, 8]: 1 to 10% |
| Cc1c(CC(=O)N[C@H](C)c2ncc(C#N)cn2)c(=O)[nH]c2ccc(F)c(F)c12 [compound 1123, (R)—N-(1-(5-cyanopyrimidin-2-yl)ethyl)-2-(5,6-difluoro-4-methyl-2-oxo-1,2-dihydroquinolin-3-yl)acetamide] | 1370 nM | 0.48 µM | 0.58 µM | – | – | – | change in vivo at 10 mg/kg [4, 5]: 21 to 40%; change in vivo at 10 mg/kg [4, 6]: 21 to 40%; change in vivo at 10 mg/kg [4, 7]: 41 to 60%; change in vivo at 10 mg/kg [4, 8]: 1 to 10% |
| Cc1c(CC(=O)N[C@@H](C)c2ccc(F)cc2F)c(=O)[nH]c2ccnc(C#N)c12 [compound 355, 2-(5-cyano-4-methyl-2-oxo-1H-1,6-naphthyridin-3-yl)-N-[(1S)-1-(2,4-difluorophenyl)ethyl]acetamide] | – | – | – | 140 nM | 0.07 µM | 0.01 µM | change in vivo at 10 mg/kg [4, 5]: 1 to 10%; change in vivo at 10 mg/kg [4, 6]: 11 to 20%; change in vivo at 10 mg/kg [4, 7]: 1 to 10%; change in vivo at 10 mg/kg [4, 8]: 1 to 10% |
| Cc1c(CC(=O)N[C@@H](C)c2ccc(F)cc2F)c(=O)[nH]c2ccc(F)c(C#N)c12 [compound 83] | 100 nM | 0.04 µM | 0.01 µM | – | – | – | change in vivo at 10 mg/kg [4, 5]: 1 to 20%; change in vivo at 10 mg/kg [4, 6]: 11 to 20%; change in vivo at 10 mg/kg [4, 7]: 11 to 20%; change in vivo at 10 mg/kg [4, 8]: 1 to 10% |
| Cc1c(F)ccc2[nH]c(=O)c(C(F)(F)C(=O)N[C@@H](C)c3ncc(C#N)cc3F)c(C)c12 (single isomer, unassigned) [compound 4812] | 180 nM | 0.19 µM | 0.05 µM | – | – | – | – |
| C[C@@H](NC(=O)Cc1c(C2CC2)c2cc(C#N)ccc2[nH]c1=O)c1ncc(C#N)cc1F [compound 1151] | 21670 nM | 21.52 µM | 10.08 µM | – | – | – | – |
| Cc1nccc2[nH]c(=O)c(CC(=O)N[C@@H](C)c3ccc(F)cc3F)cc12 [compound 445] | – | – | – | 20530 nM | 2.32 µM | 0.43 µM | – |
| C[C@H](NC(=O)C(F)(F)c1cc2c(F)c(F)ccc2[nH]c1=O)c1nccc(C#N)n1 (single isomer, unassigned) [compound 2562] | 750 nM | 0.15 µM | 0.28 µM | – | – | – | – |
| Cc1c(CC(=O)N[C@H](C)c2ccc(F)cc2F)c(=O)[nH]c2ccnc(C(F)(F)F)c12 [compound 270] | – | – | – | 100000 nM | 100.00 µM | 100.00 µM | – |
| Cc1nccc2[nH]c(=O)c(CC(=O)N[C@H]3COc4cc(C#N)cc(F)c43)c(C)c12 (single isomer, unassigned) [compound 178] | – | – | – | 20240 nM | 4.55 µM | 1.84 µM | – |
| Cc1c(C2(C(=O)N[C@@H](C)c3cccc(C#N)n3)CC2)c(=O)[nH]c2ccc(F)c(F)c12 (single isomer, unassigned) [compound 2548] | 100000 nM | 45.39 µM | – | – | – | – | Skeletal EC25 [3, 10]: 45.96‡ μM |
| Cc1c(C(F)(F)C(=O)N[C@@H](CO)c2ncc(C#N)cc2F)c(=O)[nH]c2ccnc(C#N)c12 (single isomer, unassigned) [compound 3504] | – | – | – | 4900 nM | 0.77 µM | 1.04 µM | – |
| Cc1nccc2[nH]c(=O)c(CC(=O)N[C@H](C)c3ccccc3O)c(C)c12 (single isomer, unassigned) [compound 320] | – | – | – | 100000 nM | 100.00 µM | 34.09 µM | – |
| COc1nccc2[nH]c(=O)c(CC(=O)N[C@H](C)c3ncc(C#N)cn3)c(C(F)(F)F)c12 (single isomer, unassigned) [compound 3007] | – | – | – | 5730 nM | 100.00 µM | 100.00 µM | – |
| C[C@H](NC(=O)C1(c2cc3c(F)c(F)ccc3[nH]c2=O)CC1)c1nccc(C#N)n1 (single isomer, unassigned) [compound 2506] | 100000 nM | 100.00 µM | 100.00 µM | – | – | – | – |
| Cc1c(C2(C(=O)N[C@@H](C)c3cc(C#N)ccn3)CC2)c(=O)[nH]c2ccc(F)c(F)c12 (single isomer, unassigned) [compound 2540] | 100000 nM | – | 0.96 µM | – | – | – | Atrial EC25 [2, 10]: 100.00‡ μM |
| Cc1nc([C@H](C)NC(=O)Cc2c(C)c3c(C)c(F)ccc3[nH]c2=O)ncc1C#N (single isomer, unassigned) [compound 4840] | 1620 nM | 1.44 µM | 0.29 µM | – | – | – | – |
| C[C@@H](NC(=O)C(F)(F)c1cc2c(F)c(F)ccc2[nH]c1=O)c1cc(C#N)ccn1 (single isomer, unassigned) [compound 2557] | 7270 nM | 3.66 µM | 6.04 µM | – | – | – | – |
| Cc1nccc2[nH]c(=O)c(CC(=O)N[C@@H](C)c3ccc(F)cc3F)c(C(F)(F)F)c12 [compound 430] | – | – | – | 11630 nM | 0.38 µM | 0.25 µM | – |
| Cc1c(C2(C(=O)N[C@@H](C)c3nccc(C#N)n3)CC2)c(=O)[nH]c2ccc(F)cc12 (single isomer, unassigned) [compound 4842] | 100000 nM | 100.00 µM | 37.46 µM | – | – | – | – |
| Cc1nccc2[nH]c(=O)c(CC(=O)N[C@H]3COc4cc(F)cc(F)c43)c(C)c12 (single isomer, unassigned) [compound 289] | – | – | – | 100000 nM | 28.00 µM | 2.54 µM | – |
